# According to patent US20060069132A1, “Azolecarboxamide herbicides” (priority 2004, published 2006):
# Legend:
# Assay in all cases: Test E pre-/postemergence herbicide test
# johnsongrass = assay type: in vivo, Sorghum halepense
# Outline: (§1)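 Ratings from 0 (no effect) to 100 (complete control) were assigned by visual comparison with untreated plants 12 to 14 days after application. Test chemicals, formulated with surfactant in a non-phytotoxic solvent blend, were applied to soil after planting or to foliage of 2–18 cm plants.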
# green foxtail = assay type: in vivo, Setaria viridis
# Outline: as §1
# common chickweed = assay type: in vivo, Stellaria media
# Text: (§2) Seeds of plant species selected from bipinnate beggarticks (Bidens bipinnata L.), hairy beggarticks (Bidens radiata Thuill.), bermudagrass (Cynodon dactylon (L.) Pers.), Surinam grass (Urochloa decumbens (Staph) R. D. Webster, previously named Brachiaria decumbens Stapf), large crabgrass (Digitaria sanguinalis (L.) Scop.), green foxtail (Setaria viridis (L.) P. Beauv.), goosegrass (Eleusine indica (L.) Gaertn.), johnsongrass (Sorghum halepense (L.) Pers.), kochia (Kochia scoparia (L.) Schrad.), pitted morningglory (Ipomoea lacunosa L.), purple nutsedge (Cyperus rotundus L.), common ragweed (Ambrosia elatior L.), mustard (Brassica nigra (L.) W. D. J. Koch), guineagrass (Panicum maximum Jacq.), dallisgrass (Paspalum dilatatum Poir.), barnyardgrass (Echinochloa crus-galli (L). P. Beauv.), southern sandbur (Cenchrus echinatus L.), common sowthistle (Sonchus oleraceous L.), prickly sida (Sida spinosa L.), Italian ryegrass (Lolium multiflorum Lam.), common purslane (Portulaca oleracea L.), broadleaf signalgrass (Brachiaria platyphylla (Griseb.) Nash), common groundsel (Senecio vulgaris L.), common chickweed (Stellaria media (L.) Vill/Cyr.), tropical spiderwort (Commelina benghalensis L.), annual bluegrass (Poa annua L.), downy bromegrass (Bromus tectorum L.), itchgrass (Rottboellia cochinchinensis (L.) L.f.), quackgrass (Elytrigia repens (L.) Nevski), Canada horseweed (Erigeron Canadensis L.), field bindweed (Convolvulus arvensis L.), spotted spurge (Euphorbia maculata L.), common mallow (Malva sylvestris (=s silvestris) L.), and Russian thistle (Salsola kali L. ssp. Ruthenica (Iljin) Soo) were planted and treated preemergence with test chemicals formulated in a non-phytotoxic solvent mixture which included a surfactant.
# (§3) At the same time, plants selected from these weed species were treated with postemergence applications of some of the test chemicals formulated in the same manner. Plants ranged in height from 2 to 18 cm (1- to 4-leaf stage) for postemergence treatments. Treated plants and controls were maintained in a greenhouse for 12 to 14 days, after which time all species were compared to controls and visually evaluated. Plant response ratings, summarized in Table E, are based on a scale of 0 to 100 where 0 is no effect and 100 is complete control. A dash (-) response means no test result.
# goosegrass = assay type: in vivo, Eleusine indica
# Outline: as §1
# Canada horseweed = assay type: in vivo, Erigeron Canadensis
# Text: as §2, §3
# itchgrass = assay type: in vivo, Rottboellia cochinchinensis
# Outline: as §1
# guineagrass = assay type: in vivo, Panicum maximum
# Outline: as §1
# quackgrass = assay type: in vivo, Elytrigia repens
# Outline: as §1
# common mallow = assay type: in vivo, Malva sylvestris
# Outline: as §1
# common sowthistle = assay type: in vivo, Sonchus oleraceous
# Outline: as §1
# [1] = Postemergence, 500 g ai/ha, scale 0 to 100
# [2] = Postemergence, 250 g ai/ha, scale 0 to 100
# [3] = Preemergence, 62 g ai/ha, scale 0 to 100
# [4] = Preemergence, 125 g ai/ha, scale 0 to 100
# [5] = Preemergence, 250 g ai/ha, scale 0 (no effect) to 100 (complete control)
# [6] = Preemergence, 500 g ai/ha, scale 0 (no effect) to 100 (complete control)
# [7] = postemergence, 125 g ai/ha, scale 0 to 100
# [8] = postemergence, 62 g ai/ha, scale 0 to 100
compound,measurement,setting,value
"CCn1nc(C(C)(C)C)cc1C(=O)Nc1cc(C(=O)N(C)C)ccn1 [Compound 156, 2-[[[3-(1,1-dimethylethyl)-1-ethyl-1H-pyrazol-5-yl]carbonyl]amino]-N,N-dimethyl-4-pyridinecarboxamide]","Plant response rating, Johnsongrass",johnsongrass; [1],100
same,"Plant response rating, Johnsongrass",johnsongrass; [2],100
same,"Plant response rating, Johnsongrass",johnsongrass; [3],95
same,"Plant response rating, Johnsongrass",johnsongrass; [4],100
same,"Plant response rating, Johnsongrass",johnsongrass; [5],100
same,"Plant response rating, Johnsongrass",johnsongrass; [6],100
same,"Plant response rating, Johnsongrass",johnsongrass; [7],95
same,"Plant response rating, Johnsongrass",johnsongrass; [8],85
same,"Plant response rating, Foxtail, Green",green foxtail; [1],100
same,"Plant response rating, Foxtail, Green",green foxtail; [2],100
same,"Plant response rating, Foxtail, Green",green foxtail; [3],100
same,"Plant response rating, Foxtail, Green",green foxtail; [4],100
same,"Plant response rating, Foxtail, Green",green foxtail; [5],100
same,"Plant response rating, Foxtail, Green",green foxtail; [6],100
same,"Plant response rating, Foxtail, Green",green foxtail; [7],95
same,"Plant response rating, Foxtail, Green",green foxtail; [8],75
same,"Plant response rating, Chickweed",common chickweed; [1],100
same,"Plant response rating, Chickweed",common chickweed; [2],100
same,"Plant response rating, Chickweed",common chickweed; [3],80
same,"Plant response rating, Chickweed",common chickweed; [4],100
same,"Plant response rating, Chickweed",common chickweed; [5],100
same,"Plant response rating, Chickweed",common chickweed; [6],100
same,"Plant response rating, Chickweed",common chickweed; [7],100
same,"Plant response rating, Chickweed",common chickweed; [8],100
same,"Plant response rating, Goosegrass",goosegrass; [1],98
same,"Plant response rating, Goosegrass",goosegrass; [2],98
same,"Plant response rating, Goosegrass",goosegrass; [3],95
same,"Plant response rating, Goosegrass",goosegrass; [4],95
same,"Plant response rating, Goosegrass",goosegrass; [5],100
same,"Plant response rating, Goosegrass",goosegrass; [6],100
same,"Plant response rating, Goosegrass",goosegrass; [7],98
same,"Plant response rating, Goosegrass",goosegrass; [8],95
same,"Plant response rating, Horseweed",Canada horseweed; [1],100
same,"Plant response rating, Horseweed",Canada horseweed; [2],100
same,"Plant response rating, Horseweed",Canada horseweed; [3],95
same,"Plant response rating, Horseweed",Canada horseweed; [4],100
same,"Plant response rating, Horseweed",Canada horseweed; [5],100
same,"Plant response rating, Horseweed",Canada horseweed; [6],100
same,"Plant response rating, Itchgrass",itchgrass; [1],98
same,"Plant response rating, Itchgrass",itchgrass; [2],95
same,"Plant response rating, Itchgrass",itchgrass; [3],100
same,"Plant response rating, Itchgrass",itchgrass; [4],100
same,"Plant response rating, Itchgrass",itchgrass; [5],100
same,"Plant response rating, Itchgrass",itchgrass; [6],100
same,"Plant response rating, Itchgrass",itchgrass; [7],95
same,"Plant response rating, Itchgrass",itchgrass; [8],80
same,"Plant response rating, Guineagrass",guineagrass; [1],98
same,"Plant response rating, Guineagrass",guineagrass; [2],95
same,"Plant response rating, Guineagrass",guineagrass; [3],90
same,"Plant response rating, Guineagrass",guineagrass; [4],100
same,"Plant response rating, Guineagrass",guineagrass; [5],100
same,"Plant response rating, Guineagrass",guineagrass; [6],100
same,"Plant response rating, Guineagrass",guineagrass; [7],90
same,"Plant response rating, Guineagrass",guineagrass; [8],60
same,"Plant response rating, Quackgrass",quackgrass; [1],98
same,"Plant response rating, Quackgrass",quackgrass; [2],95
same,"Plant response rating, Quackgrass",quackgrass; [3],50
same,"Plant response rating, Quackgrass",quackgrass; [4],90
same,"Plant response rating, Quackgrass",quackgrass; [5],95
same,"Plant response rating, Quackgrass",quackgrass; [6],100
same,"Plant response rating, Quackgrass",quackgrass; [7],95
same,"Plant response rating, Quackgrass",quackgrass; [8],75
same,"Plant response rating, Mallow",common mallow; [1],100
same,"Plant response rating, Mallow",common mallow; [2],95
same,"Plant response rating, Mallow",common mallow; [3],70
same,"Plant response rating, Mallow",common mallow; [4],100
same,"Plant response rating, Mallow",common mallow; [5],100
same,"Plant response rating, Mallow",common mallow; [6],100
same,"Plant response rating, Mallow",common mallow; [7],90
same,"Plant response rating, Mallow",common mallow; [8],80
same,"Plant response rating, Sowthistle",common sowthistle; [1],100
same,"Plant response rating, Sowthistle",common sowthistle; [2],100
same,"Plant response rating, Sowthistle",common sowthistle; [3],60
same,"Plant response rating, Sowthistle",common sowthistle; [4],100
same,"Plant response rating, Sowthistle",common sowthistle; [5],100
same,"Plant response rating, Sowthistle",common sowthistle; [6],100
same,"Plant response rating, Sowthistle",common sowthistle; [7],90
same,"Plant response rating, Sowthistle",common sowthistle; [8],90
CCNC(=O)c1ccc(F)c(NC(=O)c2cn(C(C)(C)C)nc2CC)c1 [Compound 193],"Plant response rating, Johnsongrass",johnsongrass; [1],80
same,"Plant response rating, Johnsongrass",johnsongrass; [2],70
same,"Plant response rating, Johnsongrass",johnsongrass; [3],20
same,"Plant response rating, Johnsongrass",johnsongrass; [4],75
same,"Plant response rating, Johnsongrass",johnsongrass; [5],85
same,"Plant response rating, Johnsongrass",johnsongrass; [6],95
same,"Plant response rating, Johnsongrass",johnsongrass; [7],70
same,"Plant response rating, Johnsongrass",johnsongrass; [8],40
same,"Plant response rating, Foxtail, Green",green foxtail; [1],90
same,"Plant response rating, Foxtail, Green",green foxtail; [2],50
same,"Plant response rating, Foxtail, Green",green foxtail; [3],10
same,"Plant response rating, Foxtail, Green",green foxtail; [4],30
same,"Plant response rating, Foxtail, Green",green foxtail; [5],80
same,"Plant response rating, Foxtail, Green",green foxtail; [6],100
same,"Plant response rating, Foxtail, Green",green foxtail; [7],20
same,"Plant response rating, Foxtail, Green",green foxtail; [8],10
same,"Plant response rating, Chickweed",common chickweed; [1],100
same,"Plant response rating, Chickweed",common chickweed; [2],95
same,"Plant response rating, Chickweed",common chickweed; [3],80
same,"Plant response rating, Chickweed",common chickweed; [4],100
same,"Plant response rating, Chickweed",common chickweed; [5],100
same,"Plant response rating, Chickweed",common chickweed; [6],100
same,"Plant response rating, Chickweed",common chickweed; [8],40
same,"Plant response rating, Goosegrass",goosegrass; [1],85
same,"Plant response rating, Goosegrass",goosegrass; [2],80
same,"Plant response rating, Goosegrass",goosegrass; [3],30
same,"Plant response rating, Goosegrass",goosegrass; [4],80
same,"Plant response rating, Goosegrass",goosegrass; [5],90
same,"Plant response rating, Goosegrass",goosegrass; [6],95
same,"Plant response rating, Goosegrass",goosegrass; [7],70
same,"Plant response rating, Goosegrass",goosegrass; [8],20
same,"Plant response rating, Horseweed",Canada horseweed; [1],90
same,"Plant response rating, Horseweed",Canada horseweed; [2],70
same,"Plant response rating, Horseweed",Canada horseweed; [3],80
same,"Plant response rating, Horseweed",Canada horseweed; [4],100
same,"Plant response rating, Horseweed",Canada horseweed; [5],100
same,"Plant response rating, Horseweed",Canada horseweed; [6],100
same,"Plant response rating, Horseweed",Canada horseweed; [7],50
same,"Plant response rating, Horseweed",Canada horseweed; [8],50
same,"Plant response rating, Itchgrass",itchgrass; [1],75
same,"Plant response rating, Itchgrass",itchgrass; [2],60
same,"Plant response rating, Itchgrass",itchgrass; [3],20
same,"Plant response rating, Itchgrass",itchgrass; [4],70
same,"Plant response rating, Itchgrass",itchgrass; [5],80
same,"Plant response rating, Itchgrass",itchgrass; [6],100
same,"Plant response rating, Itchgrass",itchgrass; [7],60
same,"Plant response rating, Itchgrass",itchgrass; [8],30
same,"Plant response rating, Guineagrass",guineagrass; [1],100
same,"Plant response rating, Guineagrass",guineagrass; [2],70
same,"Plant response rating, Guineagrass",guineagrass; [3],60
same,"Plant response rating, Guineagrass",guineagrass; [4],70
same,"Plant response rating, Guineagrass",guineagrass; [5],100
same,"Plant response rating, Guineagrass",guineagrass; [6],100
same,"Plant response rating, Guineagrass",guineagrass; [7],60
same,"Plant response rating, Guineagrass",guineagrass; [8],20
same,"Plant response rating, Quackgrass",quackgrass; [1],80
same,"Plant response rating, Quackgrass",quackgrass; [2],80
same,"Plant response rating, Quackgrass",quackgrass; [3],10
same,"Plant response rating, Quackgrass",quackgrass; [4],60
same,"Plant response rating, Quackgrass",quackgrass; [5],70
same,"Plant response rating, Quackgrass",quackgrass; [6],95
same,"Plant response rating, Quackgrass",quackgrass; [7],70
same,"Plant response rating, Quackgrass",quackgrass; [8],0
same,"Plant response rating, Mallow",common mallow; [1],90
same,"Plant response rating, Mallow",common mallow; [2],90
same,"Plant response rating, Mallow",common mallow; [3],60
same,"Plant response rating, Mallow",common mallow; [4],95
same,"Plant response rating, Mallow",common mallow; [5],95
same,"Plant response rating, Mallow",common mallow; [6],95
same,"Plant response rating, Mallow",common mallow; [7],60
same,"Plant response rating, Mallow",common mallow; [8],20
same,"Plant response rating, Sowthistle",common sowthistle; [1],95
same,"Plant response rating, Sowthistle",common sowthistle; [2],95
same,"Plant response rating, Sowthistle",common sowthistle; [3],80
same,"Plant response rating, Sowthistle",common sowthistle; [4],95
same,"Plant response rating, Sowthistle",common sowthistle; [5],95
same,"Plant response rating, Sowthistle",common sowthistle; [6],95
same,"Plant response rating, Sowthistle",common sowthistle; [7],60
same,"Plant response rating, Sowthistle",common sowthistle; [8],10
